The values below are quoted from earlier work in patent publication US8188084B2, “Pyridinone and pyridazinone derivatives as inhibitors of poly (ADP-ribose) polymerase (PARP)” (Istituto di Ricerche di Biologia Molecolare P. Angeletti …, priority 2006, dated 2012).

The subject of this data set is ischemia and reperfusion of the heart or skeletal muscle. The following applies: rabbits.

SMILES strings stand for the structures.

With `Oc1cccc2c(O)nccc12` [1,5-dihydroxyisoquinoline], under “single injection 1 mg/kg”, the reduced infarct size is given as 38-48%.
With `NC(=O)c1cccc(N)c1` [3-amino-benzamide], the “reductions in infarct size in the heart” value (single injection 10 mg/kg, one minute before occlusion or one minute before reperfusion) is reported as 32-42%.
